The source of these data is US10336707B2, “Heterocyclic derivatives modulating activity of certain protein kinases” (EUDENDRON S.R.L., priority 2014, dated 2019).

SMILES strings stand for the structures.

The target of one test is T1, DDR2 T654M (Homo sapiens, UniProt Q16832, T654M).
T1 construct: either as full-length or enzymatically active fragments; purchased ProQinase GmbH (Freiburg, Germany)
T1 sequence (Q16832 22-855 T654M): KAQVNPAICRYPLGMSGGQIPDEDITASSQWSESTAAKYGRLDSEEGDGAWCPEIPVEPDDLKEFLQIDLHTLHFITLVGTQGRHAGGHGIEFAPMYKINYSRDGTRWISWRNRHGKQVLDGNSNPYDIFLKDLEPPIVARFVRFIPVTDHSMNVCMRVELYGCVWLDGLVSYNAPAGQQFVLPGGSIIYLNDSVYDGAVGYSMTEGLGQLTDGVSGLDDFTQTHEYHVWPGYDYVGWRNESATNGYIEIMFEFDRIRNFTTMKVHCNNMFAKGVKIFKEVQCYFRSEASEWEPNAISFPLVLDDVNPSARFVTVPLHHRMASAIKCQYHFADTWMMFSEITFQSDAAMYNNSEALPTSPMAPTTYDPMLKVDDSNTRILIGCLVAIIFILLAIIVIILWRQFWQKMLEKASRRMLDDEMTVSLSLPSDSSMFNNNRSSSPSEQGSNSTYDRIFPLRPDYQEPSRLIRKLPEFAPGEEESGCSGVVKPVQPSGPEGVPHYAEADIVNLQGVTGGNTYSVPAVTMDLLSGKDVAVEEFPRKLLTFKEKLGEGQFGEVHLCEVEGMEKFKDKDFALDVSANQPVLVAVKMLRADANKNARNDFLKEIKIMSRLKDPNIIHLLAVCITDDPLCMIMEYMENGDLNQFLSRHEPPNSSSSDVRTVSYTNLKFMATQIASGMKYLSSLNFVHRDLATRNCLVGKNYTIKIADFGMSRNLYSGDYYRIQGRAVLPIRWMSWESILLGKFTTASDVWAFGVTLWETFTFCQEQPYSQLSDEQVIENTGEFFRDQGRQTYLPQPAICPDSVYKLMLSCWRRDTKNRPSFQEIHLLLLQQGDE
In words: Radiometric protein kinase assay (33PanQuinase Activity Assay), DDR2 T654M. It counts as biochemical. The settings on record: ATP 0.3 μM. The procedure:
A proprietary radiometric protein kinase assay (33PanQuinase® Activity Assay) developed by ProQuinase GmbH (Freiburg, Germany) was used for measuring the kinase activity of selected protein kinases. All assays were performed in FlashPlates™ wells 96 Perkin Elmer (Boston, Mass., USA) in a reaction volume of 50 μl. The reaction mixture was obtained in 4 steps in the following order: • 1. 10 μl of a solution of non-radioactive ATP in water; • 2. 25 μl of assay buffer/[γ-^33P]-ATP mixture • 3. 5 μl of test sample in 10% DMSO • 4. 10 μl of enzyme/substrate mixture
All protein kinases provided by ProQinase were expressed in Sf9 insect cells or in E. coli as recombinant GST-fusion proteins or His-tagged proteins, either as full-length or enzymatically active fragments. […] Kinases from external vendors (CAR=Carna Biosciences Inc.; INV=Life Technologies (Invitrogen Corporation); MIL=Merck-Millipore (Millipore Corporation), were expressed, purified and quality-controlled by virtue of the vendors readings.
A stock solution of compound of formula (I) was diluted to 5×10-04M/100% DMSO. […] Incorporation of 33Pi (counting of “cpm”) was determined with a microplate scintillation counter (Microbeta, Wallac). […]
Based on each 10 corresponding residual activities, IC50 values were calculated using Prism 5.04 for Windows (Graphpad, San Diego, Calif.). […]

A further test has as its target T2, BaF3 NPM-ALK L1152R (Homo sapiens, UniProt Q9UM73, L1152R, cells depend on it).
T2 construct: fused on or other part: P06748 (Nucleophosmin)
In words: Tritiated thymidine uptake cell proliferation assay, BaF3 NPM-ALK L1152R. It counts as cell-based, murine. The settings on record: cell line BaF3 NPM-ALK L1152R; read-out: IC50 of cellular proliferation, BaF3 NPM-ALK L1152R. Here is the method:
Method: Tritiated Thymidine Uptake Cell Proliferation Assay
The following procedure was used with parent untransformed BaF3 cells, BaF3 cells transformed with the oncogenic fusion protein NPM/ALK, NPM/ALK positive SUDHL-1 cells, NPM/ALK positive SUPM2, ALK-negative HL60 cells, NPM/ALK positive KARPAS-299 cells. The parent untransformed BaF3 cells or Alk-negative HL60 cells are used as controls. Cells were seeded in U-bottomed 96-well plates at 10000 cells/well in a volume of 100 μl in supplemented medium. In the case of the parent untransformed BaF3 cells, the medium was supplemented with IL-3. Serial dilutions of inhibitors were added to the appropriate wells and volumes adjusted to 200 μl. Controls were treated with the equivalent volume of vehicle, DMSO, alone. Plates were incubated at 37° C. for 72 h. 3[H]-thymidine (1 μCi/well) was added for the last 16 h of incubation. Cells were harvested on to paper filters and 3[H]-thymidine incorporation was measured using a scintillation counter (1430 MicroBeta, Wallac, Turku, Finland). The 50% inhibitory concentration (IC50) was defined as the concentration of inhibitor, expressed in nanomolar units, that gave a 50% decrease in 3[H]-thymidine uptake compared with controls.
In Table 4 are reported the IC50 of cellular proliferation assays of example 3 versus ALK positive, mutated and negative cell lines.

T2 sequence (Q9UM73 whole entry L1152R, the tested form may be a part): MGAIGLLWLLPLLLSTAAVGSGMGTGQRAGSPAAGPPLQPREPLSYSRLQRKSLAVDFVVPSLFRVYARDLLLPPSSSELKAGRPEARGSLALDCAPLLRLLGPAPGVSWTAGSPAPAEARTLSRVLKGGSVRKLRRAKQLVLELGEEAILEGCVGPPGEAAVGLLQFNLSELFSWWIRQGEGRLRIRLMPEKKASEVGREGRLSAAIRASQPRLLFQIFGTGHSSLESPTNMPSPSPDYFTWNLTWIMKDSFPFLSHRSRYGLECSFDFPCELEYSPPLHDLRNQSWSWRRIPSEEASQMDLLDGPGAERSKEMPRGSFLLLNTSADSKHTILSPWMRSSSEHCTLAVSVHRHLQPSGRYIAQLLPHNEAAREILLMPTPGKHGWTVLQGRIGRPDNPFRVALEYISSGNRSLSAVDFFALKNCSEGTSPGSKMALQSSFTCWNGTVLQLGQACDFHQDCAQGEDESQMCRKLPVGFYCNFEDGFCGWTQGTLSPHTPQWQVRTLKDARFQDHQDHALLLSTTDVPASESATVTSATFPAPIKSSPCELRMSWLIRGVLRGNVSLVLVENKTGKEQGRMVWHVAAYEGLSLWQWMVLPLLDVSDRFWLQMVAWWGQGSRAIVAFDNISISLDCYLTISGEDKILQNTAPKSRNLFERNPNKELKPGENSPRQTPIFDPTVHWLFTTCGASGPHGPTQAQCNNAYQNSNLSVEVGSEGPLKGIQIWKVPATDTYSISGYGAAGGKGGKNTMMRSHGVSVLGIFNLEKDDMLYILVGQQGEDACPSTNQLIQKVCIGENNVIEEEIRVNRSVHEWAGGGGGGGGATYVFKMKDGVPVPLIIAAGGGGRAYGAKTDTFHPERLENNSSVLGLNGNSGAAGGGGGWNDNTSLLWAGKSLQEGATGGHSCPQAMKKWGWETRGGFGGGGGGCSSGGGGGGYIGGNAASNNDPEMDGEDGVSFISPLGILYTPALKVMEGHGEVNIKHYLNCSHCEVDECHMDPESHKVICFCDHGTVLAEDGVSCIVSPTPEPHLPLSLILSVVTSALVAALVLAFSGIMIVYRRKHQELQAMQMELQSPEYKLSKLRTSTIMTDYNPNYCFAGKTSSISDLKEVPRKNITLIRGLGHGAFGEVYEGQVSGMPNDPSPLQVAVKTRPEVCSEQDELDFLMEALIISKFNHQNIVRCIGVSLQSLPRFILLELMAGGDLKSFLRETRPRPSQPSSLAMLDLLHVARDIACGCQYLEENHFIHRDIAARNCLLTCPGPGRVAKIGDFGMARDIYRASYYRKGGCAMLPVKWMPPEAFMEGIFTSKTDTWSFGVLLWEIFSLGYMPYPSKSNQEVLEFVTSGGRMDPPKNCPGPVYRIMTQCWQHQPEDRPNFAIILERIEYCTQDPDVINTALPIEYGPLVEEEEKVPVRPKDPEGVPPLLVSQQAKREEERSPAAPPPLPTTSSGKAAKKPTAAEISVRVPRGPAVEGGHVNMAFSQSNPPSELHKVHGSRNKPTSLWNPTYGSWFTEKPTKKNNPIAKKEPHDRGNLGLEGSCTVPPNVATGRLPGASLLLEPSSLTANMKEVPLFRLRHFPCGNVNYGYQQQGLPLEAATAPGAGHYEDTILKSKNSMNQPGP

What is called IC50 is the concentration needed to halve the response being measured. `CN1CCN(c2ccc(C(=O)Nc3n[nH]c4cc(-c5ccc(O)cc5)c(Cc5cc(F)cc(F)c5)cc34)c(NC3CCOCC3)c2)CC1` [Example 3, N-[5-[(3,5-difluorophenyl)methyl]-6-(4-hydroxyphenyl)-1H-indazol-3-yl]-4-(4-methylpiperazin-1-yl)-2-(tetrahydropyran-4-ylamino)benzamide]: inhibition against DDR2 T654M was half-maximal at 0.084 µM (IC50). For the same compound, at BaF3 NPM-ALK L1152R, the GI50 is 0.018 µM.
